Experiment in all cases: NCI tumour cell line growth inhibition, 48 h
For test [1], the system named is MDA-N.
The test system of test [2] is SK-MEL-2.
The subject of test [3] is DMS-114.
The test system of test [4] is M14.
Test [5] deals with OVCAR-5.
Test [6] concerns SK-MEL-5.
For test [7], the system named is UO-31.
For test [8], the system named is HCC 2998.
The subject of test [9] is MOLT-4.
Test [10] relates to T47D.
Test [11] has as its system TK-10.
Test [12] deals with SNB-75.
Test [13] has as its system SF-295.
The subject of test [14] is UACC-62.
The test system of test [15] is HOP-92.
The test system of test [16] is Hs-578T.
Test [17] concerns A498.
The subject of test [18] is SF-268.
Test [19] relates to HT-29.
Test [20] relates to RXF 393.

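Values below derive from 48-hour exposures of cells grown in 96-well plates, with endpoints linearly interpolated between the two concentrations bracketing the appropriate inhibition level. GI50: concentration for 50% inhibition of growth.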 Activity calls are given as the source filed them. No stated cut-off is given here; in the data, active = GI50 up to about 1.1 µM and inactive = higher.

The values that follow come from ChEMBL document CHEMBL1201862, “PubChem BioAssay data set” (2004).

Take `COc1cc([C@@H]2c3cc4c(cc3C[C@H]3COC(=O)[C@@H]32)OCO4)cc(OC)c1OC` [DESOXYPODOPHYLLOTOXIN]: the GI50 was 0.00222 µM (active) in test [1]; 0.0074 µM (active) in test [2]; 0.00698 µM (active) in test [3]; 0.004 µM (active) in test [4]; > 10.8 µM (inactive) in [5]; 0.00791 µM (active) in test [6]. For the same compound, the GI50 was 0.0986 µM (active) in [7]; 0.00791 µM (active) in test [8]; 0.00893 µM (active) in [9]; 0.003 µM (active) in test [10]; < 0.01 µM (active) in test [11]; 0.0655 µM (active) in test [12]. Moreover, the GI50 is 0.00632 µM (active) in test [13]; 0.00912 µM (active) in test [14]; 0.199 µM (active) in test [15]; 0.00204 µM (active) in test [16]; 0.00695 µM (active) in test [17]; 0.00843 µM (active) in [18].
Take `Cc1ccc(C2=Nc3ccccc3NC(=O)C2)cc1`: the GI50 in test [2] was > 100 µM (inactive); in test [3], 91.2 µM (inactive); in [4] it was > 100 µM (inactive); in [5], > 100 µM (inactive); in test [6], > 100 µM (inactive); in test [7], > 100 µM (inactive). The GI50 was > 100 µM (inactive) in test [8]; > 100 µM (inactive) in test [9]; > 100 µM (inactive) in [11]; 43.8 µM (inactive) in [12]; > 100 µM (inactive) in test [13]; > 100 µM (inactive) in [14]. The GI50 in [19] is > 100 µM (inactive); in test [15], 26.9 µM (inactive); in test [17] it was > 100 µM (inactive); in [18] it was > 100 µM (inactive); in [20], > 100 µM (inactive).
In the case of `CCOC(=O)c1c(C)c(C)n2c1NC(=O)C2`, the GI50 in test [1] is > 100 µM (inactive); in [2], > 100 µM (inactive); in test [3], > 100 µM (inactive); in test [4], > 53.7 µM (inactive); in test [5] it was > 100 µM (inactive); in test [6], > 100 µM (inactive). Moreover, the GI50 was > 64.3 µM (inactive) in [7]; 97.1 µM (inactive) in [8]; > 100 µM (inactive) in test [9]; 21.1 µM (inactive) in test [10]; > 55.8 µM (inactive) in test [11]; 39.1 µM (inactive) in test [12]. Besides, the GI50 in [13] is > 80 µM (inactive); in [14] it was > 60.3 µM (inactive); in test [19], > 74.3 µM (inactive); in [15], > 91.4 µM (inactive); in test [16], 20.3 µM (inactive); in [17], > 100 µM (inactive). Moreover, the GI50 in test [18] was > 42.8 µM (inactive); in test [20], > 40.4 µM (inactive).
As to `NC(=O)COc1ccccc1`, the GI50 in test [2], in [3], in test [4], in test [5], in test [6] and in [7] was > 100 µM (inactive) throughout. The GI50 in test [8], in test [9], in test [11], in [12], in test [13] and in test [14] was > 100 µM (inactive) each time. The GI50 in test [19], in test [15], in [17], in test [18] and in test [20] was > 100 µM (inactive) each time.
Regarding `N#CC1(Cc2ccccc2)CCCCN1C(=O)c1ccccc1` (stereo not drawn), the GI50 in test [2] was 1.42 µM (inactive); in test [3], > 100 µM (inactive); in test [4], > 100 µM (inactive); in test [5], > 100 µM (inactive); in test [6] it was > 100 µM (inactive); in test [7], 92.9 µM (inactive). Further, the GI50 in test [8] is > 100 µM (inactive); in [9], 74.6 µM (inactive); in [11], > 100 µM (inactive); in [12] it was > 100 µM (inactive); in test [13], > 100 µM (inactive); in [14] it was > 100 µM (inactive). The GI50 in [19], in test [15], in [17], in [18] and in test [20] was > 100 µM (inactive) in each case.
As for `CC(N)Cc1ccc(F)cc1` (stereo not drawn), the GI50 in test [2], in [3], in test [4], in test [5], in [6] and in test [7] was > 100 µM (inactive) each time. Further, the GI50 in test [8], in [9], in [11], in [12], in [13] and in test [14] was > 100 µM (inactive) each time. Further, the GI50 in test [19], in [15], in test [17], in [18] and in test [20] was > 100 µM (inactive) in each case.
As for `O=C1N=C2N=C(c3ccc(Cl)cc3)N(c3ccc(Cl)cc3)N2Sc2ccccc21`, the GI50 was > 100 µM (inactive) in test [2]; > 100 µM (inactive) in test [3]; > 100 µM (inactive) in test [4]; > 100 µM (inactive) in [5]; > 100 µM (inactive) in test [6]; 32.4 µM (inactive) in test [7]. Moreover, the GI50 was > 100 µM (inactive) in test [8]; > 100 µM (inactive) in test [9]; > 100 µM (inactive) in test [11]; > 100 µM (inactive) in test [12]; 64.6 µM (inactive) in [13]; > 100 µM (inactive) in test [14]. In addition, the GI50 in test [19] was > 100 µM (inactive); in test [15], 86.5 µM (inactive); in [17], > 100 µM (inactive); in [18] it was > 100 µM (inactive); in test [20], 32.8 µM (inactive).
